Assay results: patent US11918693B2, “Ibuprofen and acetaminophen tablet” (GlaxoSmithKline Consumer Healthcare Holdings (US) LLC, priority 2019, dated 2024)

Test system: patients with moderate-severe pain after ≥3 third molar extractions
Experiment: Study 2: phase 3 single-dose dental pain study, FDC vs IBU 250 mg, APAP 650 mg and placebo
Type: in vivo, human
Conditions: for Dizziness, treatment-emergent adverse event, n (%) / Flushing, treatment-emergent adverse event, n (%) / Headache, treatment-emergent adverse event, n (%) / Nausea, treatment-emergent adverse event, n (%) / Vomiting, treatment-emergent adverse event, n (%): Single-Dose Study 2; for SPID[11]0-8, Tx Diff vs. placebo: first treatment − second treatment, IBU 250 mg, APAP 650 mg; for Number (%) of patients with treatment failure: 12-hour study
Description: Two Studies were performed, both single-center, phase 3, randomized, double-blind, parallel-group, placebo-controlled studies conducted in the United States. Study 2 was a single-dose study whereas Study 3 was a multiple-dose study. The studies were performed in compliance with the ethical principles originating in or derived from the Declaration of Helsinki and in compliance with all International Council for Harmonization Good Clinical Practice Guidelines, as well as all local regulatory requirements.
In Study 2, patients experiencing moderate-severe pain after ≥3 third molar extractions, with at least 2 with partial or complete mandibular impaction, were randomized 3:3:3:1 to receive single-dose FDC IBU/APAP 250 mg/500 mg (administered as 2 tablets of IBU 125 mg/APAP 250 mg), IBU 250 mg alone, APAP 650 mg alone, or placebo under double-blind conditions. Patients self-assessed pain severity and pain relief on site for 12 hours following administration of study medication.
Rescue medication consisted of tramadol hydrochloride 50-100 mg or codeine sulfate 15-60 mg, both immediate release, and patients could administer additional doses every 4-6 hours as needed up to the maximum labeled daily dose. Patients who took rescue medication remained at the study site for the full duration of each study (12 or 48 hours, respectively) and continued to perform assessments.
In both studies 2 and 3, patients were healthy adult males or females aged 18-40 years inclusive, who had undergone surgical extraction of ≥3 third molar teeth (≥2 must have been partial or complete bony mandibular impactions). Other key entry criteria included moderate-severe pain confirmed by a rating of ≥50 mm on a 100-mm visual analog pain severity rating (PSR) scale within approximately 5 hours after completion of surgery and use of only the following preoperative medications/anesthetics: topical benzocaine, a short-acting parenteral local anesthetic (mepivacaine or lidocaine) with or -without a vasoconstrictor and/or nitrous oxide, and no contraindications to the study or rescue medications.
In Study 2, enrolled patients received one of 4 treatments: 1) placebo (administered as 2 tablets); 2) FDC IBU/APAP 250 mg/500 mg (administered as 2 caplets of IBU 125 mg/APAP 250 mg); 3) IBU 250 mg (administered as 2 caplets of IBU 125 mg); or APAP 650 mg (administered as 2 tablets of APAP 325 mg).
At baseline, patients provided self-ratings of pain severity using categorical and numerical PSR scales. The categorical PSR used a 4-point scale (none, mild, moderate, severe), with each category assigned a number from 0 (none) to 3 (severe). Patients reporting at least moderate pain on the categorical PSR at baseline completed a 100-mm visual analog scale. A score of at least 50 mm confirmed eligibility for the study. Additionally, an 11-point (0-10; 0=none to 10=worst possible pain) numerical PSR scale was also used to assess pain.
Once study treatment was administered, the categorical PSR, numerical PSR, and a 5-point categorical pain relief rating scale (0=none, 1=a little, 2=some, 3=a lot, 4=complete) were obtained at predefined assessment times to assess pain and pain relief. In Study 2 (single-dose trial), these assessments were performed at 0.25, 0.5, 1, 1.5, 2, 3, 4, 5, 6, 7, 8, 9, 10, 11, and 12 hours post-treatment. In Study 3 (multiple-dose trial), these assessments were performed at the same time points as in Study 2 up to 12 hours and also at 16, 24, 32, 40, and 48 hours post-treatment Additional evaluations included patient assessments of time to first perceptible pain relief (TFPR), defined as the time that a patient first began to feel any pain-relieving effect whatsoever of the drug and time to meaningful pain relief (TMPR), defined as the time that a patient experienced pain relief that was meaningful to that individual, using the double-stopwatch method, see Mehlisch D R et al., 2010, ibid. […]

[1] = IBU dose 250 mg, APAP dose 650 mg
[2] = Study 2, single oral dose, IBU dose 250 mg, APAP dose 650 mg

| SMILES | Dizziness, treatment-emergent adverse event, n (%) [1] | Flushing, treatment-emergent adverse event, n (%) [1] | Headache, treatment-emergent adverse event, n (%) [1] | Nausea, treatment-emergent adverse event, n (%) [1] | Vomiting, treatment-emergent adverse event, n (%) [1] | SPID[11]0-8, Tx Diff vs. placebo (Study 2, LSM difference) | SPID[11]0-8, Tx Diff vs. APAP (Study 2, LSM difference, comparator APAP 650 mg, IBU dose 250 mg) | Cumulative proportion of treatment failures after 8 hours [2] [%] | Median duration of pain relief (median time to treatment failure) [2] [h] | Median duration of pain relief (time to treatment failure) [2] [min] | Median time to onset of first perceptible pain relief (TFPR) [2] [min] | Median time to onset of meaningful pain relief (TMPR) [2] [min] | Number (%) of patients with meaningful relief [2] | Number (%) with event, first perceptible pain relief table [2] | SPID[11]0-8, Mean (SD) [2] | SPID[11]0-8, Median [2] | Number (%) of patients with treatment failure [2] |
| --- | --- | --- | --- | --- | --- | --- | --- | --- | --- | --- | --- | --- | --- | --- | --- | --- | --- |
| CC(C)Cc1ccc(C(C)C(=O)O)cc1 (centres unmarked) [IBU, 2-(4-isobutylphenyl) propionic acid] | 6 (3.4) n (%) | 2 (1.1) n (%) | 3 (1.7) n (%) | 24 (13.7) n (%) | 15 (8.6) n (%) | 24.42 | 9.10 | 33.1 | 10.1 | 608.5 | 24.6 | 65.9 | 139 (79.4) n (%) | 139 (79.4) n (%) | 28.9 (20.5) | 30.5 | 105 (60.0) n (%) |
| CC(=O)Nc1ccc(O)cc1 [APAP, N-(4-hydroxyphenyl)acetamide] | 12 (7.3) n (%) | 1 (0.6) n (%) | 4 (2.4) n (%) | 33 (20.0) n (%) | 20 (12.1) n (%) | 15.32 |  | 51.5 |  | 449.0 | 24.2 | 56.6 | 118 (71.5) n (%) | 118 (71.5) n (%) | 19.4 (20.0) | 16.8 | 105 (63.6) n (%) |
